Source: patent publication US10201556B2, “Combination for use in treating diseases or conditions associated with melanoma, or treating diseases or conditions associated with activated B-raf pathway” (InteRNA Technologies B.V., priority 2012, dated 2019)
“Also recorded” adds a separate entry of the source.

Key:
[1] = system: RPMI-7951 melanoma cell line; experiment: Anti-proliferative effect of miRNA mimics, MTS assay; assay type: cell-based; settings: 10 nM mimic, 72 hours after transfection
Protocol: (§1) The anti-proliferative effect of miRNA's in melanoma cell lines was determined with mature miRNA mimics from Ambion. For each cell line optimal growth and transfection conditions were determined prior to the experiment. Cells were plated in a 96-well plate at 3000 cells per well (100 uL) and were grown at 37 C, 5% CO2. Transfection mix (20 uL per well) was made for each miRNA mimic concentration with 0.3 uL (M249, M249-R4) or 0.5 uL (A375Hu, A375Hu-R1, A2058, RPMI-7951) X-TremeGene (Roche) per well (according to manufacturer's instructions) in Optimem (Invitrogen). Cells were transfected 24 hours after plating in triplicate. Medium was replaced 48 hours after transfection with fresh medium.

[2] = system: M249-AR (M249-R4) melanoma cell line; experiment: as above; assay type: cell-based; settings: 30 nM mimic, 72 hours after transfection
Protocol: as §1

[3] = system: A2058 melanoma cell line; experiment: as above; assay type: cell-based; settings: 10 nM mimic, 72 hours after transfection
Protocol: as §1

[4] = system: M249 melanoma cell line; experiment: as above; assay type: cell-based; settings: 5 nM mimic, 72 hours after transfection
Protocol: as §1

[5] = system: A375Hu-R1 melanoma cell line; experiment: as above; assay type: cell-based, human; settings: 10 nM mimic, 72 hours after transfection
Protocol: as §1

[6] = system: A375Hu melanoma cell line; experiment: as above; assay type: cell-based, human; settings: 10 nM mimic, 72 hours after transfection
Protocol: as §1

[7] = system: phospho-ERK1/2; experiment: Western immunoblotting of phospho-ERK1/2 protein levels; assay type: cell-based, human; settings: A375Hu cells, 72 hrs, Western blot
Protocol: (§2) A375Hu cells were seeded in 6-well plates and transfected with different concentrations (10, 50 and 100 nM) of synthetic hsa-miR-129-5p or BRAF siRNA (100 nM) using RNAiMAX (7.5 μl/well). As control a scrambled miRNA and a non-targeting siRNA pool were included. Proteins were harvested 72 hrs post transfection using RIPA buffer supplemented with HALT™ Phosphatase Inhibitor (Thermo Scientific) and Protease Inhibitor Cocktail (Sigma). Fifteen μg protein was loaded on 7.5% TGX acrylamide gels (Bio-Rad) and subsequently transferred to PVDF membranes. The membranes were blocked in 5% milk in TBS-T and incubated O/N at 4° C. with primary antibodies to bRAF, phosphoERK1/2, CDK6, and tubulin (Santa Cruz). After incubation with secondary goat-anti-mouse antibodies (Santa Cruz), membranes were developed using ECL (Pierce).
as §2, with “(1, 10” for “(10, 50”, “hsa-miR-3157” for “hsa-miR-129-5p”, “bRAF, total ERK1/2,” for “bRAF,”, “CDK4, BCL2” for “CDK6,”
as §2, with “concentrations” for “concentrations (10, 50 and 100 nM)”, “vemurafenib (PLX-4032, 0.01, 0.1, 1 uM).” for “synthetic hsa-miR-129-5p or BRAF siRNA (100 nM) using RNAiMAX (7.5 μl/well). As control a scrambled miRNA and a non-targeting siRNA pool were included.”, “bRAF, total ERK1/2,” for “bRAF,”, “CDK4, BCL2” for “CDK6,”
A2058 cells were seeded in 6-well plates and transfected with different concentrations (1, 10 and 100 nM) of synthetic hsa-miR-3157-5p or BRAF siRNA using X-TremeGene (Roche, 15 μl/well). As control a scrambled miRNA was included. Proteins were harvested 72 hrs post transfection using RIPA buffer supplemented with HALT™ Phosphatase Inhibitor (Thermo Scientific) and Protease Inhibitor Cocktail (Sigma). Fifteen μg protein was loaded on 10% TGX acrylamide gels (Bio-Rad) and subsequently transferred to PVDF membranes. The membranes were blocked in 5% milk in TBS-T and incubated O/N at 4° C. with primary antibodies to bRAF, total ERK1/2, phosphoERK1/2, BCL2, CDK4 and tubulin (Santa Cruz). After incubation with secondary goat-anti-mouse antibodies (Santa Cruz), membranes were developed using ECL (Pierce).
Transfection was performed as described in Example 4 in 6-well format. Proteins were isolated using RIPA buffer (50 mM Tris pH 8.0, 150 mM NaCL, 1% NP-40, 0.5% Sodium deoxycholate, 0.1% SDS), supplemented with Protease Inhibitor Cocktail (Sigma) and Halt™ Phosphatase Inhibitor Cocktail (Pierce/Thermo Scientific). […]

[8] = system: CDK6; experiment: Western immunoblotting of CDK6 protein levels; assay type: cell-based, human; settings: A375Hu cells, 72 hrs post transfection, Western blot
Protocol: as §2

Substance	RPMI-7951 % Viability 10 nM [1] [%]	M249-AR % Viability 30 nM [2] [%]	A2058 % Viability 10 nM [3] [%]	M249 % Viability 5 nM [4] [%]	A375Hu-R1 % Viability 10 nM [5] [%]	A375Hu % Viability 10 nM [6] [%]	phospho-ERK1/2 protein levels [7]	CDK6 protein levels [8]
hsa-miR-7-5p: mature miRNA mimic, SEQ ID NO 1 UGGAAGACUAGUGAUUUUGUUGU (listed as RNA, chemistry not given here)	65	67	51	48	68	58		
hsa-miR-182-3p: mature miRNA mimic, SEQ ID NO 10 UGGUUCUAGACUUGCCAACUA (listed as RNA, chemistry not given here)	68	83	77	71	59			
hsa-miR-200c-5p: mature miRNA mimic, SEQ ID NO 9 CGUCUUACCCAGCAGUGUUUGG (listed as RNA, chemistry not given here)	58	58	37	44	66	43		
hsa-miR-10b-3p: mature miRNA mimic, SEQ ID NO 2 ACAGAUUCGAUUCUAGGGGAAU (listed as RNA, chemistry not given here)	51	86	42	82	59	71		
hsa-miR-16-5p: mature miRNA mimic, SEQ ID NO 7 UAGCAGCACGUAAAUAUUGGCG (listed as RNA, chemistry not given here)	68	68	39	27	57	62		
hsa-miR-518b: mature miRNA mimic, SEQ ID NO 5 CAAAGCGCUCCCCUUUAGAGGU (listed as RNA, chemistry not given here)	53	53	44	50		66		
hsa-miR-96-5p: mature miRNA mimic, SEQ ID NO 3 UUUGGCACUAGCACAUUUUUGCU (listed as RNA, chemistry not given here)	53	82	33	64	69	73		
hsa-miR-497-5p: mature miRNA mimic, SEQ ID NO 8 CAGCAGCACACUGUGGUUUGU (listed as RNA, chemistry not given here)	68	68	53	29	57	45		
hsa-miR-129-5p: mature miRNA mimic, SEQ ID NO 4 CUUUUUGCGGUCUGGGCUUGC (listed as RNA, chemistry not given here)	82	64	44	47	48	59	does not result in pERK down-regulation	significant reduction in CDK6 protein abundance; also recorded: down-regulates
